# Data taken from ChEMBL document CHEMBL1201862, “PubChem BioAssay data set” (2004).
#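 Test compounds were applied to cells in 96-well plates for 48 hours at 5 doses. At the GI50, growth is halved.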 Activity calls are given as the source filed them. Rule as the data show it: active = GI50 up to about 1.1 µM and inactive = higher.
# Key:
# Assay in all cases: growth of human tumour cells (NCI), 48 h
# OVCAR-4 = system: OVCAR-4
# HCT-116 = system: HCT-116
# UACC-62 = system: UACC-62
# KM-20L2 = system: KM-20L2
# SK-MEL-28 = system: SK-MEL-28
# SN12C = system: SN12C
# A549 = system: A549
# EKVX = system: EKVX
# HCC 2998 = system: HCC 2998
# RXF 631 = system: RXF 631
# SW-620 = system: SW-620
# TK-10 = system: TK-10
# SF-295 = system: SF-295
# CCRF-CEM = system: CCRF-CEM
# IGROV-1 = system: IGROV-1
# SF-539 = system: SF-539
# UO-31 = system: UO-31
# HOP-62 = system: HOP-62
# A498 = system: A498
# LXFL 529 = system: LXFL 529
# U-251 = system: U-251
# OVCAR-5 = system: OVCAR-5
# CAKI-1 = system: CAKI-1
# SNB-78 = system: SNB-78
# SNB-75 = system: SNB-75
# DLD-1 = system: DLD-1
# SK-OV-3 = system: SK-OV-3
# XF498 = system: XF498
# MOLT-4 = system: MOLT-4
# ACHN = system: ACHN
# M19-MEL = system: M19-MEL
# HL-60 = system: HL-60
# HOP-18 = system: HOP-18
# UACC-257 = system: UACC-257
# SF-268 = system: SF-268
# OVCAR-3 = system: OVCAR-3
# HOP-92 = system: HOP-92
# OVCAR-8 = system: OVCAR-8
# SNB-19 = system: SNB-19
# NCI-H522 = system: NCI-H522
# DMS-273 = system: DMS-273
# RPMI-8226 = system: RPMI-8226
# LOX IMVI = system: LOX IMVI
# KM12 = system: KM12
# HCT-15 = system: HCT-15
# K562 = system: K562
# HT-29 = system: HT-29
# SK-MEL-5 = system: SK-MEL-5
# NCI-H460 = system: NCI-H460
# DMS-114 = system: DMS-114
# M14 = system: M14
# NCI-H23 = system: NCI-H23
# 786-0 = system: 786-0
# SK-MEL-2 = system: SK-MEL-2
# NCI-H226 = system: NCI-H226
# Malme-3M = system: Malme-3M
# RXF 393 = system: RXF 393
# COLO 205 = system: COLO 205
structure (smiles),measurement,setting,value
CCN(CC)CC(=O)N1CCc2c([nH]c3ccccc23)C1c1cccnc1 (stereo unspecified),GI50,OVCAR-4,> 100 µM (inactive)
same,GI50,HCT-116,> 100 µM (inactive)
same,GI50,UACC-62,> 100 µM (inactive)
same,GI50,KM-20L2,> 100 µM (inactive)
same,GI50,SK-MEL-28,> 100 µM (inactive)
same,GI50,SN12C,> 100 µM (inactive)
same,GI50,A549,> 100 µM (inactive)
same,GI50,EKVX,> 100 µM (inactive)
same,GI50,HCC 2998,> 100 µM (inactive)
same,GI50,RXF 631,> 100 µM (inactive)
same,GI50,SW-620,> 100 µM (inactive)
same,GI50,TK-10,> 100 µM (inactive)
same,GI50,SF-295,> 100 µM (inactive)
same,GI50,CCRF-CEM,> 100 µM (inactive)
same,GI50,IGROV-1,> 100 µM (inactive)
same,GI50,SF-539,> 100 µM (inactive)
same,GI50,UO-31,26.9 µM (inactive)
same,GI50,HOP-62,> 100 µM (inactive)
same,GI50,A498,> 100 µM (inactive)
same,GI50,LXFL 529,> 100 µM (inactive)
same,GI50,U-251,> 100 µM (inactive)
same,GI50,OVCAR-5,> 100 µM (inactive)
same,GI50,CAKI-1,> 100 µM (inactive)
same,GI50,SNB-78,> 100 µM (inactive)
same,GI50,SNB-75,73.6 µM (inactive)
same,GI50,DLD-1,> 100 µM (inactive)
same,GI50,SK-OV-3,> 100 µM (inactive)
same,GI50,XF498,> 100 µM (inactive)
same,GI50,MOLT-4,> 100 µM (inactive)
same,GI50,ACHN,> 100 µM (inactive)
same,GI50,M19-MEL,> 100 µM (inactive)
same,GI50,HL-60,> 100 µM (inactive)
same,GI50,HOP-18,> 100 µM (inactive)
same,GI50,UACC-257,> 100 µM (inactive)
same,GI50,SF-268,> 100 µM (inactive)
same,GI50,OVCAR-3,> 100 µM (inactive)
same,GI50,HOP-92,31.4 µM (inactive)
same,GI50,OVCAR-8,> 100 µM (inactive)
same,GI50,SNB-19,> 100 µM (inactive)
same,GI50,NCI-H522,> 100 µM (inactive)
same,GI50,DMS-273,> 100 µM (inactive)
same,GI50,RPMI-8226,71.8 µM (inactive)
same,GI50,LOX IMVI,> 100 µM (inactive)
same,GI50,KM12,> 100 µM (inactive)
same,GI50,HCT-15,> 100 µM
same,GI50,K562,> 100 µM (inactive)
same,GI50,HT-29,> 100 µM (inactive)
same,GI50,SK-MEL-5,> 100 µM (inactive)
same,GI50,NCI-H460,> 100 µM (inactive)
same,GI50,DMS-114,> 100 µM (inactive)
same,GI50,M14,> 100 µM (inactive)
same,GI50,NCI-H23,> 100 µM (inactive)
same,GI50,786-0,> 100 µM (inactive)
O=C1c2ccccc2C(=O)N1CCn1ccc(NC(c2ccccc2)(c2ccccc2)c2ccccc2)nc1=O,GI50,OVCAR-4,25.5 µM (inactive)
same,GI50,HCT-116,17.5 µM (inactive)
same,GI50,UACC-62,12.6 µM (inactive)
same,GI50,KM-20L2,14.1 µM (inactive)
same,GI50,SK-MEL-28,18.2 µM (inactive)
same,GI50,SK-MEL-2,20.5 µM (inactive)
same,GI50,SN12C,26.2 µM (inactive)
same,GI50,A549,28.2 µM (inactive)
same,GI50,EKVX,49.1 µM (inactive)
same,GI50,HCC 2998,21.4 µM (inactive)
same,GI50,RXF 631,15 µM (inactive)
same,GI50,SW-620,29.3 µM (inactive)
same,GI50,TK-10,26.9 µM (inactive)
same,GI50,SF-295,15.1 µM (inactive)
same,GI50,CCRF-CEM,20.1 µM (inactive)
same,GI50,NCI-H226,18.7 µM (inactive)
same,GI50,IGROV-1,22.2 µM (inactive)
same,GI50,SF-539,16 µM (inactive)
same,GI50,UO-31,21.2 µM (inactive)
same,GI50,HOP-62,17.5 µM (inactive)
same,GI50,A498,18.2 µM (inactive)
same,GI50,LXFL 529,28.4 µM (inactive)
same,GI50,U-251,16.4 µM (inactive)
same,GI50,OVCAR-5,25.1 µM (inactive)
same,GI50,CAKI-1,9.62 µM (inactive)
same,GI50,SNB-78,30.8 µM (inactive)
same,GI50,SNB-75,21.8 µM (inactive)
same,GI50,DLD-1,19.1 µM (inactive)
same,GI50,SK-OV-3,43.8 µM (inactive)
same,GI50,XF498,13.9 µM (inactive)
same,GI50,MOLT-4,17.5 µM (inactive)
same,GI50,ACHN,22.5 µM (inactive)
same,GI50,M19-MEL,16.8 µM (inactive)
same,GI50,HL-60,19 µM (inactive)
same,GI50,HOP-18,24.2 µM (inactive)
same,GI50,UACC-257,18 µM (inactive)
same,GI50,SF-268,19.2 µM (inactive)
same,GI50,OVCAR-3,24.3 µM (inactive)
same,GI50,Malme-3M,20.3 µM (inactive)
same,GI50,HOP-92,18.5 µM (inactive)
same,GI50,OVCAR-8,36.7 µM (inactive)
same,GI50,RXF 393,18.8 µM (inactive)
same,GI50,SNB-19,25.2 µM (inactive)
same,GI50,COLO 205,17.6 µM (inactive)
same,GI50,NCI-H522,20.2 µM (inactive)
same,GI50,DMS-273,17.3 µM (inactive)
same,GI50,RPMI-8226,19.8 µM (inactive)
same,GI50,LOX IMVI,17.1 µM (inactive)
same,GI50,KM12,20.8 µM (inactive)
same,GI50,HCT-15,22.5 µM
same,GI50,K562,20.3 µM (inactive)
same,GI50,HT-29,16.8 µM (inactive)
same,GI50,SK-MEL-5,17.5 µM (inactive)
same,GI50,NCI-H460,23.6 µM (inactive)
same,GI50,DMS-114,18.4 µM (inactive)
same,GI50,M14,22 µM (inactive)
same,GI50,NCI-H23,24 µM (inactive)
same,GI50,786-0,32 µM (inactive)
